Earlier results in patent US20040248214A1, “Novel method of assaying immune activity” (priority 2001, published 2004).

Columns and labels:
[1] = tested on: NKT cells; conditions: cancer-bearing mouse

| Compound | activation of NKT cells [1] | disappearance of cancer [1] | metastasis [1] | side effect (IL-12 per se directly administered into living body) | anti-cancer effect (in vivo) |
| --- | --- | --- | --- | --- | --- |
| CCCCCCCCCCCCCCCCCCCCCCCCCC(=O)N[C@@H](CO[C@H]1O[C@H](CO)[C@H](O)[C@H](O)[C@H]1O)[C@H](O)[C@H](O)CCCCCCCCCCCCCC [α-galactosylceramide] | NKT cells were activated | disappearance of cancer was not noted | metastasis was suppressed | – | – |
| IL-12: interleukin 12 | – | – | – | results in a side effect | has an anti-cancer effect |
